{
  "source": "paper PMC10696402",
  "about": "(The Journal of Biological Chemistry, 2023)",
  "key": {"[1]": {"biological_target": "T1, WT CYP2C9 (Homo sapiens, UniProt P11712)", "settings": "for Vmax, flurbiprofen 4′-hydroxylation / CLint, flurbiprofen 4′-hydroxylation: WT; for CLint, flurbiprofen 4′-hydroxylation: Vmax/Km", "method": "(§1) Incubations were performed in phosphate buffer (100 μl; 0.1 M, pH 7.4) and contained WT or mutant CYP2C9 protein, 3 pmol/ml. […] After preincubation at 37 °C for 5 min, reactions were initiated by the addition of NADPH (1 mM final concentration) containing MgCl2 (4 mM). […] Samples were cooled on ice and then centrifuged at 5000g, 4 °C for 10 min. An aliquot (20 μl) of the supernatant fraction was injected into the HPLC column. […] The mobile phase comprised 25 mM phosphate buffer containing 0.02% triethylamine and 5% acetonitrile (phase A) and acetonitrile (phase B), delivered at a flow rate of 1 ml/min. […] Given the favorable sensitivities of these assays, rates of metabolite formation below the lower limits of quantification may be considered negligible.\n(§2) Kinetic data are presented as the mean (± SD) of four separate experiments. […] CLint, which reflects reaction efficiency, was calculated as Vmax/Km."}, "[2]": {"biological_target": "T1, WT CYP2C9", "settings": "dapsone 100 μM", "method": "Incubations were performed in phosphate buffer (100 μl; 0.1 M, pH 7.4) and contained WT or mutant CYP2C9 protein, 3 pmol/ml. […] After preincubation at 37 °C for 5 min, reactions were initiated by the addition of NADPH (1 mM final concentration) containing MgCl2 (4 mM). Following incubation at 37 °C for 30 min, reactions were terminated by the addition of 11.6 M HClO4 (1 μl). Samples were cooled on ice and then centrifuged at 5000g, 4 °C for 10 min. An aliquot (20 μl) of the supernatant fraction was injected into the HPLC column. […] The mobile phase comprised 25 mM phosphate buffer containing 0.02% triethylamine and 5% acetonitrile (phase A) and acetonitrile (phase B), delivered at a flow rate of 1 ml/min.\nThe mobile phase comprised 10 mM ammonium formate (pH 3) in 5% acetonitrile (mobile phase A) and acetonitrile (mobile phase B), delivered at a flow rate of 1 ml/min. The initial mobile phase composition was 80% mobile phase A and 20% mobile phase B, which was delivered for 8 min. After this time, the proportion of mobile phase B was increased to 70% over 0.1 min, and then held for 2 min before returning to the initial conditions.\nKinetic data are presented as the mean (± SD) of four separate experiments. Unless otherwise stated, metabolite formation followed sigmoidal kinetics, which was confirmed by comparison of goodness-of-fit parameters from fitting rate of metabolite formation versus substrate concentration data with the equations for empirical kinetic models (Michaelis–Menten, substrate inhibition, biphasic, and positive cooperativity) using the program GraphPad Prism version 7.01 (https://www.graphpad.com, GraphPad Software, Inc)."}, "[3]": {"tested_on": "recombinant CYP2C9", "settings": "cited from earlier work"}, "[4]": {"settings": "healthy volunteers; cited from earlier work"}, "[5]": {"tested_on": "CYP3A4", "set-up": "method as in PMID 19752211", "settings": "coadministration of gefitinib, CYP3A4-humanized mice; cited from earlier work"}, "[6]": {"tested_on": "CYP2C9 Phe114 substituted with Ile and Leu", "settings": "Phe114Ile and Phe114Leu vs WT; cited from earlier work"}, "[7]": {"tested_on": "CYP2C9 Phe114 substituted with Ile and Leu", "settings": "cited from earlier work"}, "[8]": {"biological_target": "T2, CYP2C9 Lys206Ala mutant (Homo sapiens, UniProt P11712, K206A)", "assay": "Diclofenac 4′-hydroxylation kinetics, Lys206Ala mutant", "settings": "for CLint, diclofenac 4′-hydroxylation: Vmax/Km; for Km at 7 min: human, pH 7.4, Km, diclofenac 4′-hydroxylation", "method": "(§3) Mutations were confirmed by DNA sequencing using an Applied Biosystems 3130xl Genetic Analyzer with BigDye Terminator v3.1 Chemistry (Applied Biosystems).\n(§4) WT and mutant CYP2C9 proteins and NADPH-CPR were coexpressed according to Boye et al. ([61]). Plasmids were transformed into E. coli DH5R competent cells and single isolated colonies were grown by shaking at 37 °C overnight in Luria-Bertani medium containing ampicillin (100 mg/L) and chloramphenicol (50 mg/L). Overnight cultures of each clone were diluted 1:100 in Terrific broth containing 0.2% Bacto Peptone (w/v), ampicillin (100 mg/L), and chloramphenicol (50 mg/L). Cells were grown at 37 °C in a rotary shaker until the absorbance at 600 nm reached 0.7, when δ-aminolevulinic acid and isopropyl-α-D-thiogalactopyroside were added to final concentrations of 0.5 mM and 1 mM, respectively. Cultures were then grown at 30 °C with shaking at 200 rpm for 24 h. Bacterial cells were harvested, and membrane fractions were prepared as described by Gillam et al. ([62]). The P450 content of bacterial membranes was quantified spectrophotometrically using established methods ([63], [64], [65]). CPR content was measured spectrophotometrically as the NADPH-cytochrome c reductase activity ([66]).\n(§5) Incubations were performed in phosphate buffer (100 μl; 0.1 M, pH 7.4) and contained WT or mutant CYP2C9 protein, 3 pmol/ml. […] After preincubation at 37 °C for 5 min, reactions were initiated by the addition of NADPH (1 mM final concentration) containing MgCl2 (4 mM). Following incubation at 37 °C for 30 min, reactions were terminated by the addition of 11.6 M HClO4 (1 μl). Samples were cooled on ice and then centrifuged at 5000g, 4 °C for 10 min. An aliquot (20 μl) of the supernatant fraction was injected into the HPLC column. […] The mobile phase comprised 25 mM phosphate buffer containing 0.02% triethylamine and 5% acetonitrile (phase A) and acetonitrile (phase B), delivered at a flow rate of 1 ml/min. […] Given the favorable sensitivities of these assays, rates of metabolite formation below the lower limits of quantification may be considered negligible.\n(§6) The mobile phase comprised 10 mM ammonium formate (pH 3) in 5% acetonitrile (mobile phase A) and acetonitrile (mobile phase B) delivered at a flow rate of 1 ml/min.\nas §2"}, "[9]": {"biological_target": "T1, WT CYP2C9", "assay": "Diclofenac 4′-hydroxylation kinetics, recombinant WT CYP2C9", "settings": "for CLint, diclofenac 4′-hydroxylation: Vmax/Km; for Km at 7 min: human, pH 7.4, Km, diclofenac 4′-hydroxylation", "method": "as §5, §6\nKinetic data are presented as the mean (± SD) of four separate experiments. Unless otherwise stated, metabolite formation followed sigmoidal kinetics, which was confirmed by comparison of goodness-of-fit parameters from fitting rate of metabolite formation versus substrate concentration data with the equations for empirical kinetic models (Michaelis–Menten, substrate inhibition, biphasic, and positive cooperativity) using the program GraphPad Prism version 7.01 (https://www.graphpad.com, GraphPad Software, Inc). […] CLint, which reflects reaction efficiency, was calculated as Vmax/Km."}, "[10]": {"tested_on": "CYP3A", "settings": "monkeys coadministered quinidine; cited from earlier work"}, "[11]": {"biological_target": "T2, CYP2C9 Lys206Ala mutant", "settings": "for Vmax, flurbiprofen 4′-hydroxylation / CLint, flurbiprofen 4′-hydroxylation: Lys206Ala; for CLint, flurbiprofen 4′-hydroxylation: Vmax/Km", "method": "as §3, §4, §5, §2"}, "[12]": {"biological_target": "T1, WT CYP2C9", "assay": "in vitro", "settings": "pH 7.4, Km, flurbiprofen 4′-hydroxylation", "method": "as §1, §2"}, "[13]": {"biological_target": "T2, CYP2C9 Lys206Ala mutant", "assay": "in vitro", "settings": "pH 7.4, Km, flurbiprofen 4′-hydroxylation", "method": "as §3, §4, §5, §2"}, "[14]": {"tested_on": "CYP2C9", "settings": "cited from earlier work"}, "[15]": {"tested_on": "CYP2C9 homology model", "settings": "homology model based on rabbit CYP2C5 crystal structure; cited from earlier work"}, "[16]": {"tested_on": "CYP3A", "settings": "semisimultaneous administration of efavirenz; cited from earlier work"}, "[17]": {"settings": "Lys206Ala vs WT CYP2C9, − dapsone"}},
  "note": "“And” between values parts separate entries of the source, which are not always exact repeats. Equal entries are not always repeated. “Also recorded” adds a separate entry of the source. Where two headings read alike, the source gives them in different places.",
  "data": [
    {"smiles": "Nc1ccc(S(=O)(=O)c2ccc(N)cc2)cc1", "note": "[dapsone]", "values": [
      {"measurement": "effect of dapsone on Vmax of flurbiprofen 4′-hydroxylation", "setting": "[1]; WT CYP2C9, dapsone 100 μM", "value": "unaffected; also recorded: without significantly affecting"},
      {"measurement": "increase in catalytic efficiency (CLint) of flurbiprofen 4′-hydroxylation by dapsone", "setting": "[1]; WT CYP2C9, dapsone 100 μM", "value": 2.3, "unit": "fold"},
      {"measurement": "reduction in the Km for flurbiprofen 4′-hydroxylation by dapsone", "setting": "[1]; WT CYP2C9, dapsone 100 μM", "value": "~60", "unit": "%"},
      {"measurement": "decrease in the Km for naproxen demethylation by dapsone", "setting": "[2]", "value": 70, "unit": "%"},
      {"measurement": "increase in Vmax of naproxen demethylation by dapsone", "setting": "[2]", "value": 4.8, "unit": "fold"},
      {"measurement": "increase in catalytic efficiency (CLint) of naproxen O-demethylation by dapsone", "setting": "[2]", "value": 16.5, "unit": "fold"},
      {"measurement": "increase in Vmax of flurbiprofen 4′-hydroxylation by dapsone", "setting": "[3]; WT CYP2C9, earlier study", "value": "~60", "unit": "%"},
      {"measurement": "dapsone concentration giving maximum activation", "setting": "[3]; flurbiprofen 4′-hydroxylation, naproxen O-demethylation, piroxicam 5′-hydroxylation, confirmed here with naproxen (data not shown)", "value": 100, "unit": "µM"},
      {"measurement": "increase in flurbiprofen exposure on coadministration of dapsone", "setting": "[4]", "value": 10, "unit": "%"}
    ]},
    {"smiles": "COc1cc2ncnc(Nc3ccc(F)c(Cl)c3)c2cc1OCCCN1CCOCC1", "note": "[gefitinib]", "values": [
      {"measurement": "effect on triazolam exposure", "setting": "[5]", "value": "significantly reduce"}
    ]},
    {"smiles": "CC(=O)C[C@@H](c1ccccc1)c1c(O)c2ccccc2oc1=O", "note": "[S-warfarin]", "values": [
      {"measurement": "reduction of CLint for S-warfarin 7-hydroxylation (abolished or reduced)", "setting": "[6]", "value": "≥ 89", "unit": "%"}
    ]},
    {"smiles": "O=C(O)Cc1ccccc1Nc1c(Cl)cccc1Cl", "note": "[Diclofenac, diclofenac]", "values": [
      {"measurement": "reduction of CLint for diclofenac 4′-hydroxylation (abolished or reduced)", "setting": "[7]", "value": "≥ 89", "unit": "%"},
      {"measurement": "Vmax, diclofenac 4′-hydroxylation", "setting": "[8]; + dapsone 100 μM", "value": "4.41 ± 0.12", "unit": "pmol/min/pmol P450"},
      {"measurement": "CLint, diclofenac 4′-hydroxylation", "setting": "[8]; + dapsone 100 μM", "value": "1.81 ± 0.07", "unit": "μL/min/pmol P450"},
      {"measurement": "Km at 7 min", "setting": "[8]; + dapsone 100 μM", "value": "2.45 ± 0.13", "unit": "µM"},
      {"measurement": "Km at 7 min", "setting": "[8]; − dapsone", "value": "4.05 ± 0.35", "unit": "µM"},
      {"measurement": "Vmax, diclofenac 4′-hydroxylation", "setting": "[8]; − dapsone", "value": "6.53 ± 0.19", "unit": "pmol/min/pmol P450"},
      {"measurement": "CLint, diclofenac 4′-hydroxylation", "setting": "[8]; − dapsone", "value": "1.64 ± 0.10", "unit": "μL/min/pmol P450"},
      {"measurement": "Vmax, diclofenac 4′-hydroxylation", "setting": "[9]; + dapsone 100 μM", "value": "3.19 ± 0.09", "unit": "pmol/min/pmol P450"},
      {"measurement": "CLint, diclofenac 4′-hydroxylation", "setting": "[9]; + dapsone 100 μM", "value": "1.99 ± 0.17", "unit": "μL/min/pmol P450"},
      {"measurement": "Km at 7 min", "setting": "[9]; + dapsone 100 μM", "value": "1.6 ± 0.15", "unit": "µM"},
      {"measurement": "Km at 7 min", "setting": "[9]; − dapsone", "value": "2.18 ± 0.16", "unit": "µM"},
      {"measurement": "Vmax, diclofenac 4′-hydroxylation", "setting": "[9]; − dapsone", "value": "5.20 ± 0.13", "unit": "pmol/min/pmol P450"},
      {"measurement": "CLint, diclofenac 4′-hydroxylation", "setting": "[9]; − dapsone", "value": "2.39 ± 0.16", "unit": "μL/min/pmol P450"}
    ]},
    {"smiles": "C=C[C@H]1C[N@@]2CC[C@H]1C[C@@H]2[C@@H](O)c1ccnc2ccc(OC)cc12", "note": "[quinidine]", "values": [
      {"measurement": "decrease in steady-state plasma concentrations of diclofenac", "setting": "[10]", "value": "approximately 50%"}
    ]},
    {"smiles": "C[C@H](C(=O)O)c1ccc(-c2ccccc2)c(F)c1", "note": "[Flurbiprofen, S-flurbiprofen]", "values": [
      {"measurement": "Vmax, flurbiprofen 4′-hydroxylation", "setting": "[1]; + dapsone 100 μM", "value": "5.30 ± 0.09", "unit": "pmol/min/pmol P450"},
      {"measurement": "CLint, flurbiprofen 4′-hydroxylation", "setting": "[1]; + dapsone 100 μM", "value": "0.946 ± 0.033", "unit": "μL/min/pmol P450"},
      {"measurement": "CLint, flurbiprofen 4′-hydroxylation", "setting": "[1]; − dapsone", "value": "0.407 ± 0.01", "unit": "μL/min/pmol P450"},
      {"measurement": "Vmax, flurbiprofen 4′-hydroxylation", "setting": "[1]; − dapsone, mean ± SD", "value": "5.05 pmol/min/pmol P450 and 5.05 ± 0.08 pmol/min/pmol P450"},
      {"measurement": "Km for flurbiprofen 4′-hydroxylation, higher than WT", "setting": "[11]; [17]", "value": 30, "unit": "%"},
      {"measurement": "Vmax for flurbiprofen 4′-hydroxylation, lower than WT", "setting": "[11]; [17]", "value": 37, "unit": "%"},
      {"measurement": "intrinsic clearance (CLint) of flurbiprofen 4′-hydroxylation, lower than WT", "setting": "[11]; [17]", "value": "approximately 50%"},
      {"measurement": "Vmax, flurbiprofen 4′-hydroxylation", "setting": "[11]; + dapsone 100 μM", "value": "4.27 ± 0.11", "unit": "pmol/min/pmol P450"},
      {"measurement": "CLint, flurbiprofen 4′-hydroxylation", "setting": "[11]; + dapsone 100 μM", "value": "0.66 ± 0.03", "unit": "μL/min/pmol P450"},
      {"measurement": "Vmax, flurbiprofen 4′-hydroxylation", "setting": "[11]; − dapsone", "value": "3.21 ± 0.14", "unit": "pmol/min/pmol P450"},
      {"measurement": "CLint, flurbiprofen 4′-hydroxylation", "setting": "[11]; − dapsone", "value": "0.20 ± 0.01", "unit": "μL/min/pmol P450"},
      {"measurement": "Km at 30 min", "setting": "[12]; + dapsone 100 μM", "value": "5.6 ± 0.31", "unit": "µM"},
      {"measurement": "Km at 30 min", "setting": "[12]; − dapsone, mean ± SD, four experiments", "value": "12.4 ± 0.44", "unit": "µM"},
      {"measurement": "Km at 30 min", "setting": "[13]; + dapsone 100 μM", "value": "6.6 ± 0.3", "unit": "µM"},
      {"measurement": "Km at 30 min", "setting": "[13]; − dapsone", "value": "16.2 ± 0.6", "unit": "µM"},
      {"measurement": "shift of the 4′-proton of flurbiprofen nearer to the heme Fe in the presence of dapsone", "setting": "[14]; T1 relaxation rates by NMR", "value": 0.9, "unit": "Å"},
      {"measurement": "increase in binding affinity of flurbiprofen in the presence of dapsone", "setting": "[14]", "value": "approximately 60%"},
      {"measurement": "estimate of the shift in the SOM–heme Fe distance of flurbiprofen with dapsone", "setting": "[15]", "value": 0.5, "unit": "Å"}
    ]},
    {"smiles": "O=C1Nc2ccc(Cl)cc2[C@@](C#CC2CC2)(C(F)(F)F)O1", "note": "[efavirenz]", "values": [
      {"measurement": "increase in apparent oral clearance of midazolam", "setting": "[16]", "value": 70, "unit": "%"}
    ]}
  ]
}
